The series can be described thus: clinical. As to conditions: human, in vivo. As for the experimental part: […]. The PA and CA extracts in the topical formulation were prepared according to the methods described herein. The topical formulation is cream-based and further comprises cetostearyl alcohol (about 1.0-10% by weight, for example, about 3.5-6.5% by weight), white petrolatum and liquid petrolatum 350 cps (about 5%-30% by weight in total, for example, about 5-15% by weight in total), methyl paraben and propyl paraben (about 0.005% to 0.2% by weight in total, for example, 0.005-0.2% by weight in total), emulsifiers such as Span® 60 and Tween® 60 (about 0.5-10% by weight in total, for example, about 0.5-5% by weight in total), and one or more solvent such as propylene glycol (about 2-20% by weight, for example, about 4-10% by weight). The extracts were formulated in a cream-based topical formulation that additionally contains liquid petrolatum, propylene glycol, cetyl stearyl alcohol, white petrolatum, Span® 60, Tween® 60, propyl paraben, methyl paraben, and water.
A total of 12 patients completed the study. Each subject received one dose of the cream formulation on Day 1 followed by the blood sampling collection, then twice per day from Day 2 to Day 13, and a further blood sampling collection was scheduled on Day 14 after the final dose. […].

Regarding `COc1ccc(-c2cc(=O)c3c(O)c(OC)c(OC)cc3o2)cc1` [salvigenin], the concentration at 1 day was at most 0.0124 ng/mL and the concentration at 14 day is at most 0.017 ng/mL. Besides, for the setting “1 day”, the “number of patients with detectable plasma concentrations” value is reported as 2. In addition, the “number of patients with detectable plasma concentrations” value (14 day) is recorded as 4.

Values taken from patent US10758584B2, “Topical formulation for promoting wound healing” (Oneness Biotech Co. LTD, priority 2016, dated 2020).
